Data from PMC8136953 (Veterinary Medicine and Science, 2020).
Several values for one entry are separate records, joined by “and”; a condition that tells them apart may be missing. Identical values can stand only once. Like-named read-outs stand apart in the source and are kept apart here.

How the values were obtained:
[1] = Plasma pharmacokinetics of FLO after a single dietary administration
Procedure: Apparently healthy European seabass averaging about 100 ± 12 g were obtained from a local fish farm (Selonda aquaculture S.A) and distributed in two cages (1 m^3) located within a 50 m^3 cement tank (85 fish/cage). Water was supplied by open flow and oxygen was provided continuously by bubbling air. The water temperature and salinity were 24 ± 1°C and 38‰, respectively. Fish were allowed to acclimate for 7 days prior to experimentation and fed a drug‐free commercial diet at 1.5% body weight (B.W.).
During the trial, the experimental diet was stored at 4°C and was left to obtain ambient temperature before delivery.
Sampling of fish was performed at predetermined time points during and post treatment (Figure 1) after anesthetization with clove oil (40 mg/L). […] At each sampling point, 10 fish were killed by a blow to the head and tissue samples were obtained. Approximately, 2 ml of blood was drawn with a needle (Microlance 23G 11/4 0.6 × 30; Becton Dickinson, Zaragoza, Spain) from the caudal vein at selected time points during treatment and transferred into heparinised test tubes. Plasma was separated from blood samples by centrifugation at 20,160 g for 10 min at 4°C. Moreover for the withdrawal study, muscle plus skin (approximately 5 g) were taken from the anterior dorsal region on days 1, 2, 3, 4 and 6 post treatment. All prepared tissue samples were immediately frozen and stored at −20°C until analysis.
Briefly, 1 ml of plasma sample was placed in a 10 ml polypropylene centrifuge tube with 500 μl of acetonitrile:water (35:65, v/v). […] The homogenised samples were centrifuged (8,000 g for 10 min) and the supernatant was transferred to a 15 ml polypropylene centrifuge tube. The extraction step was repeated twice. The combined extract was then evaporated to dryness at 40°C under a gentle stream of nitrogen. The residue was reconstituted by 1 ml of mobile phase solution. Five milliliter of hexane were added into the tube and after mixing it was subjected to centrifugation for 5 min at 2,150 g prior to the removal of the hexane layer. The afore‐mentioned de‐fatting step was also repeated twice. The water‐based phase was filtered using 0.22 μm nylon filter and the filtrate (200 μl) was then analysed by HPLC.
The column temperature was maintained at 30°C and the injected volume was 200 μl. As a mobile phase, (A) an aqueous solution of NaH2PO4 (0.01 M) containing 0.005 M sodium dodecyl sulphate and 0.1% triethylamine (pH 4.8 adjusted with 85% phosphoric acid) and (B) acetonitrile were used (A/B, 65:35, v/v). The flow rate was 1.0 ml/min.
The area under the concentration–time curve (AUC0‐∞) was determined using trapezoidal method and was extrapolated to infinity.

[2] = 0‰, 25 °C, cited from earlier work
[3] = 28‰, MO, 10 × 10d mg/kg fish, 150 g, 27 °C; ref Di Salvo et al. (2013); cited from earlier work
[4] = design: method as in Lim et al. (2010); settings: ref Lim et al. (2010), cited from earlier work
[5] = design: method as in Yanong et al. (2005); settings: 0‰, SO, 50 mg/kg fish, 144 g, 23–25 °C; ref Yanong et al. (2005); cited from earlier work
[6] = cited from earlier work
[7] = design: method as in Chang et al. (2019); settings: 31‰, SO‐FA, 30 mg/kg fish, 615 g, ref Chang et al. (2019), cited from earlier work
[8] = design: method as in Xie et al. (2013); settings: 0‰, SO‐FA, 20 mg/kg fish, 71 g, 25 °C; ref Xie et al. (2013); cited from earlier work
[9] = European seabass (Dicentrarchus labrax), plasma, oral, 10 mg/kg
[10] = MO‐FA, 10 × 10d mg/kg fish, 612 g, ref Gaunt et al. (2013)
[11] = SO‐FA, 10 mg/kg fish, ref Gaunt et al. (2012)
[12] = 33‰, MO, 20 × 3d mg/kg fish, 380 g, 19 °C
[13] = 0‰, MO, 10 × 10d mg/kg fish, 444–474 g, 25–30 °C, ref Kosoff et al. (2009)
[14] = 0‰, MO, 15 × 10d mg/kg fish, 100–500 g, 25 °C, ref Bowser et al. (2009)
[15] = 0‰, SO‐FA, 15 mg/kg fish, 500–700 g, 24 °C, ref Rairat et al. (2019)
[16] = 0‰, SO‐FA, 15 mg/kg fish, 500–700 g, 28 °C, ref Rairat et al. (2019)
[17] = 0‰, SO‐FA, 15 mg/kg fish, 500–700 g, 28 °C, ref Rairat et al. (2020)
[18] = 0‰, SO‐FA, 15 mg/kg fish, 500–700 g, 32 °C, ref Rairat et al. (2019)
[19] = 2‰, SO‐FA, 15 mg/kg fish, 500–700 g, 28 °C, ref Rairat et al. (2020)
[20] = 4‰, SO‐FA, 15 mg/kg fish, 500–700 g, 28 °C, ref Rairat et al. (2020)
[21] = 8‰, SO‐FA, 15 mg/kg fish, 500–700 g, 28 °C, ref Rairat et al. (2020)
[22] = 15‰, SO‐FA, 15 mg/kg fish, 500–700 g, 28 °C, ref Rairat et al. (2020)

Question: What does the source list for `CS(=O)(=O)c1ccc([C@@H](O)[C@@H](CF)NC(=O)C(Cl)Cl)cc1` [FLO, florfenicol]?
Answer: Tmax [1, 9]: 4 h; concentration at 24 hr [1, 9]: 550 ng/mL; AUC ([1]; European seabass (Dicentrarchus labrax), plasma, po, 10 mg/kg): 34700 ng·h/mL; half-life ([1]; in vivo, po, 10 mg/kg): 780 min; AUC ([1]; plasma, po, 10 mg/kg): 34700 ng·h/mL; Maximum plasma concentration ([1]; single dietary administration 10 mg/kg, plasma, 24°C): 1.6 µg/mL and 1.64 µg/mL; C max [2, 10]: 9.7 µg/mL; T max [2, 10]: 8 h; C max [2, 11]: 7.6 µg/mL; T max [2, 11]: 9 h; t 1/2b [2, 11]: 9.1 h; WT [3]: 95 h; C max [4, 12]: 12.2 µg/mL; WT [4, 12]: 189 h; Tissue distribution ([4]; multiple oral 20 mg kg^−1 day^−1 for three consecutive days): higher tissue concentrations of FLO in gills than in the other tested tissue samples; C max [5]: 12.3 µg/mL; T max [5]: 3 h; C max [6, 13]: 6.5 to 6.7 µg/mL; WT [6, 13]: 98 to 146 h; C max [6, 14]: 7.1 to 15.2 µg/mL; WT [6, 14]: >288 h; t 1/2b [6, 14]: 1.2 to 2.2 h; C max [6, 15]: 23.1 µg/mL; T max [6, 15]: 84 min; t 1/2b [6, 15]: 12.4 h; C max [6, 16]: 16.7 µg/mL; T max [6, 16]: 72 min; t 1/2b [6, 16]: 9.5 h; C max [6, 17]: 24.0 µg/mL; T max [6, 17]: 48 min; t 1/2b [6, 17]: 11.3 h; C max [6, 18]: 16.7 µg/mL; T max [6, 18]: 48 min; t 1/2b [6, 18]: 7.3 h; t 1/2b ([6]; 2‰, SO‐FA, 15 mg/kg fish, 500–700 g, 28 °C, ref Rairat et al. (2020), 15 mg/kg): 10.7 h; C max [6, 19]: 21.6 µg/mL; T max [6, 19]: 54 min; C max [6, 20]: 21.8 µg/mL; T max [6, 20]: 54 min; t 1/2b [6, 20]: 10.6 h; C max [6, 21]: 24.4 µg/mL; T max [6, 21]: 54 min; t 1/2b [6, 21]: 10.2 h; t 1/2b ([6]; 15‰, SO‐FA, 15 mg/kg fish, 500–700 g, 28 °C, ref Rairat et al. (2020), 15 mg/kg): 8.9 h; C max [6, 22]: 22.7 µg/mL; T max [6, 22]: 60 min; C max ([7]; 15 °C): 9.1 µg/mL; t 1/2b ([7]; 15 °C): 14.3 h; T max ([7]; 15–20 °C): 12 h; C max ([7]; 20 °C): 12.2 µg/mL; t 1/2b ([7]; 20 °C): 9.7 h; C max [8]: 8.4 µg/mL; T max [8]: 5 h; t 1/2b [8]: 13.5 h
